From patent publication US20130172346A1, “USE OF KYNURENIC ACID AMIDE DERIVATIVES FOR THE TREATMENT OF HUNTINGTON'S DISEASE” (priority 2010, published 2013)
Entries after “also recorded” stand apart in the source; their conditions may differ.

How the values were obtained:
N171-82Q transgenic mice [1] = assay: Survival test in N171-82Q transgenic mouse model of Huntington's disease; format: in vivo; conditions: p=0.016
Text: (§1) The transgenic N171-82Q mice were originally obtained from Jackson Laboratories (Bar Harbor, Me., United States), later we have propagated them in our laboratories by using B6C3F1 background strains. The progeny were genotyped by PCR technique from tail-DNA. The animals were kept in transgenic cages under standard laboratory conditions (up to 5 animals/cage), and had free access to water and food. Male and female transgenic and wild type animals respectively, were equally allotted to the individual test groups. The transgenic animals were injected intraperitoneally (5 ml/kg of body weight) every day at the same time with 2-(2-N,N-dimethylaminoethylamino-1-carbonyl)-1H-quinolin-4-one hydrochloride (at a dose of 100 mg/kg of body weight, dissolved in distilled water, pH was adjusted to 6.5 with 1N NaOH). The control transgenic and wild animals, respectively obtained a salt solution comprising 0.1 M of phosphate buffer (PBS) (5 ml/kg of body weight). The animals were inoculated in the first 5 days of the week starting from the age of 7 weeks.
The transgenic animals were inoculated as disclosed above with 2-(2-N,N-dimethylamino-ethylamino-1-carbonyl)-1H-quinolin-4-one hydrochloride (n=10), and the transgenic animals serving as a control, were inoculated with 0.1 M PBS (n=10) until the animals perished. As negative control wild type animals, treated with 0.1M PBS were used (n=10).
(§2) The statistical analysis of our data was performed by using Statistica software (StatSoft Inc., (2008) STATISTICA version 8.0.; www.statsoft.com). The analysis of the survival data was carried out by Kaplan-Meyer survival curves and Mantel-Cox log rank test. The normality of the data of the open-field test, the body weight measurement and the striatal cell volume measurement was first examined by Shapiro-Wilk W test. […] The significance level was determined at p<0.05. In case of normal distribution an average±S.E.M and in case of non-normal distribution the median and the interquartile range were used in order to depict the data

N171-82Q transgenic mice [2] = assay: Open-field test for examining motor activity (covered distance); format: in vivo, mouse
Text: as §1
A test method almost identical with the method disclosed for the survival test was used with the exception of the number of animals (n=9, n=8, n=8 corresponding to the above group assignment). The spontaneous motor activity of the mice was tested once a week 2 hours after the given daily inoculation, always at the same day of the week. The animals stayed in the test unit (48×48×40 cm box open from above) for 5 minutes, the motor parameters were registered by the aid of Conducta 1.0 software (Experimetria Ltd., Budapest, Hungary). In order to characterize the motor activity, the parameter of the covered distance was selected and the data of the examined 9 weeks (between the age of 7 and 15 weeks) were evaluated as follows: an average of the first, second, third 3 weeks was calculated for each test group and the three test groups were compared according to the obtained average values.
as §2

N171-82Q transgenic mice [3] = assay: Body weight measurements; format: in vivo, mouse; conditions: 100 mg/kg i.p., weekly measurement from age of 7 weeks; p=0.00022
Text: as §1
(§3) The body weight of the animals was measured once a week, always at the same day of the week and at the same time of the day, starting from the age of 7 weeks. […]

[4] = test system: neurons of the striatum of N171-82Q transgenic mice; assay: Immunohistochemistry with cell volume estimation of striatal neurons; format: in vivo, mouse; conditions: 100 mg/kg i.p.
Text: as §1, §3

[5] = cited from earlier work
[6] = test system: organic anion transporters; conditions: mediated by organic anion transporters; cited from earlier work

Row | Structure (SMILES) | average survival time (N171-82Q transgenic mice [1]; N171-82Q transgenic mice, intraperitoneal, chronic, 100 mg/kg, n=10, control transgenic 111.3±6.6 days) [days] | survival compared to the control groups (Kaplan-Meier) (N171-82Q transgenic mice [1]; N171-82Q transgenic mice, FIG. 1) | improvement of average survival time (N171-82Q transgenic mice [1]; vs control transgenic animals, intraperitoneal, chronic, 100 mg/kg) [%] | covered distance, last 3 weeks (N171-82Q transgenic mice [2]; 100 mg/kg i.p., last 3 weeks of treatment, p=0.0094) | covered distance, second 3 weeks (N171-82Q transgenic mice [2]; 100 mg/kg i.p., second 3 weeks) | covered distance, first 3 weeks (N171-82Q transgenic mice [2]; 5 minutes, 2 hours after daily inoculation, 100 mg/kg i.p., first 3 weeks (from age of 7 weeks)) | covered distance in progress of time (N171-82Q transgenic mice [2]; N171-82Q transgenic mice, FIG. 2) | body weight compared to the control transgenic animals (N171-82Q transgenic mice [3]) | size (volume) of the neurons in the striatum ([4]; treated transgenic animals at age of 16 weeks, interquartile range 716.2-787.4, untreated transgenic 663.4, wild type 739.0) [μm^3] | atrophy of the neurons in the striatum ([4]; treated vs untreated N171-82Q transgenic animals, hydrochloride, 100 mg/kg) | solubility [5] | elimination from the brain and organism [6]
1 | CN(C)CCNC(=O)c1cc(=O)c2ccccc2[nH]1.Cl [2-(2-N,N-dimethylaminoethylamino-1-carbonyl)-1H-quinolin-4-one hydrochloride] | 145.5 ± 12.0 | significantly increased | 30.7 | significant improvement | positive changes | has not improved | significant improvement | significantly increased | 744.5 | successfully prevented the atrophy; also recorded: prevented the development of atrophy | – | –
2 | O=C(O)c1cc(=O)c2ccccc2[nH]1 [KYNA, kynurenic acid] | – | – | – | – | – | – | – | – | – | – | poor | rapidly eliminated
